Measured values reported in US7569596B2, “Imidazolamino compounds” (National Health Research Institutes, priority 2002, dated 2009).

Tested on: Murine leukemic P388 cells
Assay: In vivo anticancer activity, murine leukemic P388 model
Parameters: species or system DBA/2J mice
Conditions: mice intravenously inoculated with P388 cells; given P.O. or I.V. at different doses
Experimental: Evaluation of in vivo Anticancer Activity
The in vivo anticancer activities of the compounds were evaluated by the following murine leukemic P388 model. Inbred female DBA/2J mice of 4-5 week-old were purchased from the National Laboratory Animals Breeding and Research Center, Taipei, Taiwan, ROC. Murine leukemic P388 cells were purchased from the Japanese Collection of Research Bioresources, Japan. P388 cells were cultured and propagated in RPM11640 medium supplemented with 50 μM 2-mercaptoethanol and 10% fetal bovine serum. Mice at the age of 6 weeks were grouped as the treatment, negative control and positive control groups at 7 to 8 mice per group. All mice were intravenously inoculated with the P388 cells at one million per mouse one day before the treatments initiated. Compound 6 was dissolved in dimethyl sulfoxide (DMSO) and then diluted in 0.5% carboxymethyl cellulose or a Cremophor-based vehicle with the final concentration of DMSO less than 0.5%. Different treatment groups were orally (P.O.) or intravenously (I.V.) given, respectively, with Compound 6 of different doses for a pharmacological dose-response relationship. The mice of the negative control group were treated with the dosing vehicle only. […] The cancer cell-inoculated animals were monitored twice daily. Survival fractions of the mice were recorded. […]

## Nc1nc(-c2cccs2)cn1-c1nc(-c2ccccc2)cs1 [Compound 6, 1-(4-phenyl-1,3-thiazol-2-yl)-4-(2-thienyl)-1H-2-imidazolamine]
  survival rate of the inoculated mice: increased the survival rate
